US4419351A, “Platinum-dioxopyrimidine complexes” (priority 1978, dated 1983)
Like-named read-outs stand apart in the source and are kept apart here.

Assays:
[1] = tested on: ascites Sarcoma-180 tumor; test: chemotherapeutic activity vs ascites Sarcoma-180 tumor, single i.p. injection on day 1 (Table 2 survey); format: in vivo, Swiss White mice; conditions: for # of cures / Dose of Best % ILS / Toxic Level / Best % ILS (increase in lifespan): carrier saline; for Dose of Best % ILS / Toxic Level / Best % ILS (increase in lifespan): single i.p. day 1; for Toxic Level: 2 or more of 6 animals died within 8 days; for Best % ILS (increase in lifespan): max 100%
Experimental: The chemotherapeutic activities of the "Platinum Blue" complexes were determined using the ascites Sarcoma-180 tumor in Swiss White mice. The protocols for these tests were as follows: Random bred female Swiss White mice (Spartan Laboratory, Williamston, Mich.) of 18-20 grams weight were randomized in groups of six. The ascites cells were removed from the peritoneal cavities of animals with approximately 10 day old ascites tumors. The cells were washed several times with 0.85% saline and spun down each time in a refrigerated centrifuge for 3-5 minutes at 750 r.p.m. After the blood was removed from the cells, they were diluted with 0.85% saline solution and counted in a hemocytometer. A final dilution of 2×10^7 cells/ml. in saline was made. Each animal received 0.2 ml. of this suspension (4×10^6 cells/animals). This was injected intraperitoneally on day 0 of each test. Two groups (12 animals) were kept as negative controls, and the test was terminated at twice the mean day of death of the negative controls. […] All test compounds were injected i.p. on day one as a 0.5 ml. volume of the compound in a carrier of water, physiologic saline or arachis oil (peanut oil). Soluble compounds were always tested in appropriate solutions, the insoluble ones as a slurry. The slurry was sonicated for periods of up to 10 minutes to insure uniformity of dispersion just prior to injections. […] Retests were performed if a sufficient level of drug toxicity at the highest dose was not reached. Animals still alive at the completion of the tests were considered to have died on the day of evaluation. Animals showing no abdominal distention (by palpation, or visibly) on this day were considered cured.
The compounds tested were usually freshly prepared and purified. The compounds kept for further testing were stored in a vacuum dessicator in a dark refrigerator to prevent deterioration. […] Toxic levels are considered to be that concentration where 2 or more of the 6 animals at the dose died within 8 days of injection.
The letter A indicates the "blue" or first isolated precipitate, the letter B, the "green" or second precipitate.

[2] = tested on: MCDV 12 (Rauscher Leukemia, Virus Induced); test: effects on MCDV 12 (Rauscher Leukemia, virus induced) (Table 5); format: in vivo, BALB/C Mice; conditions: for Survivors: at 200% ILS
From the text: (§1) Tables 4-7, respectively, tabulate the results achieved when employing the complexes of the invention against the L1210, MCDV 12, (Rauscher Leukemia, virus-induced), Ehrlich Ascites and the ADJ PC6A (myeloma) tumors.
^a All experiments were terminated arbitrarily at 200% ILS and
survivors tabulated at that time. All therapy was started on third day
after tumor transplant. Untreated tumor controls died 10-11 days after
transplant. In some instances, efforts to reproduce above results have
shown considerable variability.

L1210 Tumor = test: effects on L1210 tumor (Table 4); format: in vivo, BDF Mice; conditions: for Survivors: at 200% ILS
From the text: as §1
^a All experiments were terminated arbitrarily at 200% ILS and any
survivors were tabulated at that time. All therapy was started on the
third day after tumor transplant. Untreated tumor controls died 10-11 day
after transplant. In some instances efforts to reproduce above results
have shown considerable variability.

ADJ/PC6A Tumor = test: effects on ADJ/PC6A tumor (Table 7); format: in vivo, Female, C^- Mice; conditions: i.p., single dose, 24 days after tumor implant
[3] = tested on: Mice Kidneys (proximal convoluted tubules); design: species or system female Swiss White mice; conditions: mouse, in vivo
From the text: The protocols for these tests were as follows: Each group contained six female Swiss White mice; the tumored animals were given a transplant of a solid Sarcoma-180 tumor on day 0 and treatment was initiated on day 1; the animals were sacrificed on day 10 and the kidneys removed and prepared for histological evaluation; control groups were non-tumored, non-treated animals, and tumored, non-treated animals. Multiple sections of each kidney were examined. […] The saturation concentration cannot be specified other than an estimate of less than 1 mg/100 ml. A very brief summary of the results are compiled in Table 8. The histopathologic degenerative changes are dose dependent in all cases.

Ehrlich Ascites Tumor = test: survival times of mice bearing the Ehrlich ascites tumor (Table 6); format: in vivo; conditions: 7 mg/kg; for Mean Survival Time (+ S.D.): single i.p. day 3
From the text: as §1
^a 6 mice/group; each mouse received 10^7 ascites tumor cells on
day 0; treatment was as a single i. p. injection on day 3.

[4] = tested on: ascites Sarcoma-180 tumor; test: schedule dependency tests of antitumor activity (Table 3); format: in vivo, Swiss White mice; conditions: for # of cures / Best % ILS / Dose of Best % ILS: saline
Experimental: The chemotherapeutic activities of the "Platinum Blue" complexes were determined using the ascites Sarcoma-180 tumor in Swiss White mice. The protocols for these tests were as follows: Random bred female Swiss White mice (Spartan Laboratory, Williamston, Mich.) of 18-20 grams weight were randomized in groups of six. The ascites cells were removed from the peritoneal cavities of animals with approximately 10 day old ascites tumors. The cells were washed several times with 0.85% saline and spun down each time in a refrigerated centrifuge for 3-5 minutes at 750 r.p.m. After the blood was removed from the cells, they were diluted with 0.85% saline solution and counted in a hemocytometer. A final dilution of 2×10^7 cells/ml. in saline was made. Each animal received 0.2 ml. of this suspension (4×10^6 cells/animals). This was injected intraperitoneally on day 0 of each test. Two groups (12 animals) were kept as negative controls, and the test was terminated at twice the mean day of death of the negative controls. […] Soluble compounds were always tested in appropriate solutions, the insoluble ones as a slurry. The slurry was sonicated for periods of up to 10 minutes to insure uniformity of dispersion just prior to injections. […] Retests were performed if a sufficient level of drug toxicity at the highest dose was not reached. Animals still alive at the completion of the tests were considered to have died on the day of evaluation. Animals showing no abdominal distention (by palpation, or visibly) on this day were considered cured.

[5] = tested on: Escherichia coli-wild type; test: anti-microbial activity, growth in test tube cultures (Table 9); format: cell-based
Experimental: The following procedure was utilized to test the anti-microbal activity of the platinum complexes. The tests were performed with Escherichia coli-wild type, growing in test tube cultures. Using standardized techniques, growth in the medium was examined after the incorporation of the various test chemicals, using the increase in the optical density of the medium as against time. The bacteria were also periodically examined under a phase contrast microscope for evidence of elongation (filmentation).

Structure (SMILES): CC1CNC(=O)NC1=O (stereo not drawn) [5,6-dihydrothymine Class IA]
- # of cures ([1]; 6 animals per test): 2
- Dose of Best % ILS [1]: 200 mg/kg
- Toxic Level [1]: 400 mg/kg
- Best % ILS (increase in lifespan) [1]: 87%
- % ILS ([2]; 30.63 mg/kg q3 hr × 8): 75%
- Survivors ([2]; 30.63 mg/kg q3 hr × 8): 1/3
- % ILS ([2]; 50 mg/kg qid × 5): 157%
- Survivors ([2]; 50 mg/kg qid × 5): 2/3
- % ILS ([2]; 61.25 mg/kg q3 hr × 6): 121%
- Survivors ([2]; 61.25 mg/kg q3 hr × 6): 2/3
- % ILS ([2]; 100 mg/kg qid × 5): 0%
- Survivors ([2]; 100 mg/kg qid × 5): 0/3
- % ILS (L1210 Tumor; 30.63 mg/kg q3 hr × 8): 30%
- Survivors (L1210 Tumor; 30.63 mg/kg q3 hr × 8): 0/3
- % ILS (L1210 Tumor; 50 mg/kg qid × 5): 36%
- Survivors (L1210 Tumor; 50 mg/kg qid × 5): 0/3
- % ILS (L1210 Tumor; 61.25 mg/kg q3 hr × 8): 0%
- Survivors (L1210 Tumor; 61.25 mg/kg q3 hr × 8): 0/3
- % ILS (L1210 Tumor; 100 mg/kg qid × 5): 45%
- Survivors (L1210 Tumor; 100 mg/kg qid × 5): 0/3
- ID 90 (90% Inhibition) (ADJ/PC6A Tumor): 25 mg/kg
- LD50 (ADJ/PC6A Tumor): 135 mg/kg

Structure (SMILES): CCOC(=O)c1c[nH]c(=O)[nH]c1=O [5-carbethoxyuracil Class IA]
- # of cures ([1]; 6 animals per test): 0
- Dose of Best % ILS [1]: 200 mg/kg
- Toxic Level [1]: 200 mg/kg
- Best % ILS (increase in lifespan) [1]: 56%
- ID 90 (90% Inhibition) (ADJ/PC6A Tumor): 250 mg/kg
- LD50 (ADJ/PC6A Tumor): 670 mg/kg

Structure (SMILES): O=c1[nH]cc(CO)c(=O)[nH]1 [5-hydroxymethyluracil Class IA]
- # of cures ([1]; 6 animals per test): 2
- Dose of Best % ILS [1]: 100 mg/kg
- Toxic Level [1]: 200 mg/kg
- Best % ILS (increase in lifespan) [1]: 98%
- ID 90 (90% Inhibition) (ADJ/PC6A Tumor): 42 mg/kg
- LD50 (ADJ/PC6A Tumor): 40 mg/kg

Structure (SMILES): O=c1cc(Cl)[nH]c(=O)[nH]1 [6-chlorouracil Class IA]
- # of cures ([1]; 6 animals per test): 3
- Dose of Best % ILS [1]: 200 mg/kg
- Toxic Level [1]: > 200 mg/kg
- Best % ILS (increase in lifespan) [1]: 88%
- ID 90 (90% Inhibition) (ADJ/PC6A Tumor): 190 mg/kg
- LD50 (ADJ/PC6A Tumor): 200 mg/kg

Structure (SMILES): CC#N.CC#N.[Cl][Pt][Cl] [Pt(CH3 CN)2 Cl2, reference compound]
- # of cures ([1]; 6 animals per test): 1
- Dose of Best % ILS [1]: 25 mg/kg
- Toxic Level [1]: 50 mg/kg
- Best % ILS (increase in lifespan) [1]: 83%
- gross hepatic damage ([1]; in words): exceptions

Structure (SMILES): [Cl][Pt+2][Cl].[NH-]C1CCCC1.[NH-]C1CCCC1 [cis-dichloro(bis)cyclopentylamineplatinum(II)]
- saturation concentration in saline: less than 1 mg/100 ml
- histopathologic degenerative changes at higher dose levels [3]: generalized vacuolar (hydropic) degeneration of the proximal convoluted tubules

Structure (SMILES): N.N.[Cl][Pt][Cl] [cis-dichlorodiammineplatinum(II)]
- histopathologic degenerative changes at higher dose levels [3]: generalized vacuolar (hydropic) degeneration of the proximal convoluted tubules
- Observed Renal Histopathological Changes ([3]; 0.5 mg/kg): normal
- Observed Renal Histopathological Changes ([3]; 1 mg/kg): normal
- Observed Renal Histopathological Changes ([3]; 2 mg/kg): mild degenerative changes (cloudy swelling)
- Observed Renal Histopathological Changes ([3]; 3 mg/kg): mild degenerative changes (cloudy swelling)
- Observed Renal Histopathological Changes ([3]; 7 mg/kg): extensive degenerative changes (hydropic degeneration)
- Dose of Best % ILS [1]: 7 mg/kg
- Best % ILS (increase in lifespan) [1]: 49 (S.D ± 2.82) %
- # of cures ([1]; positive control, of 12 animals): 1
- % ILS ([2]; 5 mg/kg × 1): 146%
- Survivors ([2]; 5 mg/kg × 1): 2/3
- % ILS ([2]; 8 mg/kg × 1): 62%
- Survivors ([2]; 8 mg/kg × 1): 0/2
- % ILS ([2]; 16 mg/kg × 1): -15%
- Survivors ([2]; 16 mg/kg × 1): 0/3
- % Increase in Mean Survival Time (Ehrlich Ascites Tumor; first experiment): 307%
- Mean Survival Time (+ S.D.) (Ehrlich Ascites Tumor; first experiment (control 8.3 days)): 33.8 ± 16.9 days
- animals that survived > 60 days (Ehrlich Ascites Tumor; first experiment, 6 mice/group): 2 animals
- % Increase in Mean Survival Time (Ehrlich Ascites Tumor; second experiment): 194%
- Mean Survival Time (+ S.D.) (Ehrlich Ascites Tumor; second experiment (control 10.1 days)): 29.7 ± 4.2 days
- # of cures ([4]; day 1, 1 injection): 1
- Best % ILS ([4]; day 1, 1 injection): 42 (S.D. ± 3.1) %
- Dose of Best % ILS ([4]; day 1, 1 injection): 7 mg/kg
- Best % ILS ([4]; every 5th day, 5 injections): 83%
- Dose of Best % ILS ([4]; every 5th day, 5 injections): 5 mg/kg
- # of cures ([4]; every 5th day, 5 injections, 6 animals per test): 3
- Best % ILS ([4]; every 3 hrs., 8 injections): 86%
- Dose of Best % ILS ([4]; every 3 hrs., 8 injections): 1 mg/kg
- # of cures ([4]; every 3 hrs., 8 injections, 6 animals per test): 5
- animals died within 9 days of start (remainder cured) ([4]; every day, 5 injections, 3 mg/kg): Three
- Best % ILS ([4]; every day, 5 injections): 19%
- Dose of Best % ILS ([4]; every day, 5 injections): 3 mg/kg
- # of cures ([4]; every day, 5 injections, 6 animals per test): 3
- Optical Density of Bacterial Cultures ([5]; 7 ppm, 1:45 p.m., first run): .74
- Optical Density of Bacterial Cultures ([5]; 7 ppm, 2:45 p.m., first run): .78
- Optical Density of Bacterial Cultures ([5]; 7 ppm, 9:30 a.m., first run): .19
- Optical Density of Bacterial Cultures ([5]; 7 ppm, 10:45 a.m., first run): .31
- Optical Density of Bacterial Cultures ([5]; 7 ppm, 11:45 a.m., first run): .44
- Optical Density of Bacterial Cultures ([5]; 7 ppm, 12:45 p.m., first run): .62
- Optical Density of Bacterial Cultures ([5]; 10 ppm, 1:00 p.m., second run): .49
- Optical Density of Bacterial Cultures ([5]; 10 ppm, 2:00 p.m., second run): .55
- Optical Density of Bacterial Cultures ([5]; 10 ppm, 3:20 p.m., second run): .60
- Optical Density of Bacterial Cultures ([5]; 10 ppm, 9:30 a.m., second run): .12
- Optical Density of Bacterial Cultures ([5]; 10 ppm, 11:00 a.m., second run): .26
- Optical Density of Bacterial Cultures ([5]; 10 ppm, 12:00 p.m., second run): .37
- ID 90 (90% Inhibition) (ADJ/PC6A Tumor): 1.6 mg/kg
